“Also recorded” adds a separate entry of the source. Bridge positions count the residues as written; N and C are the ends. Ends that are not written are not given here. Peptide text beside a SMILES is read from it.
Experiments:
rASIC1a = biological target: T1, rASIC1a (Rattus norvegicus, UniProt P55926); experiment: Two-electrode voltage clamp (TEVC) on Xenopus laevis oocytes expressing homomeric rASIC1a; type: cell-based; conditions: for Extent of inhibition of ASIC1a currents (full or incomplete): at saturating concentrations; for Reversibility of inhibition (in words) / Rapidly reversible inhibition: upon washout; for Rapidly reversible inhibition: Table 1; for % Residual Current: current remaining at saturating peptide concentrations; for Potency compared to wild-type Hi1a (in words): point mutants
T1 construct: expressed in transfected cells; host or cells: Xenopus laevis oocytes injected with cRNA
T1 sequence (P55926 1-526): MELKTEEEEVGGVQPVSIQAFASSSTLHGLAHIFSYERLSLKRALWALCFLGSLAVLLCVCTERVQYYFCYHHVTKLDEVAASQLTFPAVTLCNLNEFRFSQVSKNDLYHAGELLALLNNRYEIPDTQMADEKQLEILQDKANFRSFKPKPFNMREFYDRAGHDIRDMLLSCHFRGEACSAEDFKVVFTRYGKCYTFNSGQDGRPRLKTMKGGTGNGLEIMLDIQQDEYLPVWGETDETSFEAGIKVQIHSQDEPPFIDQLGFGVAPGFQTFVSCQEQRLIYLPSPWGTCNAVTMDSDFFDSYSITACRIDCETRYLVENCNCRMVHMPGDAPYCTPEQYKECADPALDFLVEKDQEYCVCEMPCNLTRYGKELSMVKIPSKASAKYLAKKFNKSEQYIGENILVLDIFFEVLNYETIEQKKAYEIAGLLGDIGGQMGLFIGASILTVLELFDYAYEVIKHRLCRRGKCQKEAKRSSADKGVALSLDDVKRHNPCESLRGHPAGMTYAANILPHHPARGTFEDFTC
Experimental: The ability of the peptides of the invention to modulate ASIC currents was assessed using two-electrode voltage clamp (TEVC) electrophysiology experiments performed on Xenopus laevis oocytes expressing homomeric ASIC channels. Xenopus oocytes are widely used as an expression system for functional characterisation of ion channel modulators. TEVC allows measurement of whole-cell ion channel currents while controlling the membrane potential.
Oocytes were harvested from anaesthetised female X. laevis then defolliculated by treatment with collagenase (Sigma, type I). Oocytes were injected with in vitro transcribed ASIC cRNA (capped RNA). Oocytes were kept at 17-18° C. in ND96 solution containing 96 mM NaCl, 2 mM KCl, 1.8 mM CaCl2, 2 mM MgCl2, 5 mM HEPES, 5 mM pyruvic acid, 50 μg/ml gentamicin (pH 7.4), and fetal horse serum (2.5%), and experiments were performed at room temperature (21-22° C.) 1-3 days after cRNA injection. Oocytes were clamped at −60 mV (Warner OC-725C oocyte clamp; Warner Instruments, CT, USA) using two standard glass microelectrodes of 0.5-2 MΩ resistance when filled with 3 M KCl. Data acquisition and analysis were performed using pCLAMP software, Version 10 (Axon Instruments, CA, USA). Currents were elicited by a drop in pH from 7.45 to 6.0 using a microperfusion system to allow rapid solution exchange. All experiments were performed using ND96 solution spiked with 0.1% BSA in order to minimise adsorption of peptides to plastic tubing.

[1] = test system: spontaneously hypertensive rats (SHR); experiment: Focal reperfusion (endothelin-1) stroke model in conscious SHR, i.c.v. administration; type: in vivo, rat; conditions: single i.c.v. dose two hours after stroke; Hi1a 2 ng/kg, PcTx1 and mutant 1 ng/kg; 72 h post-stroke
Experimental: The neuroprotective efficacy of Hi1a was assessed in a rat model of focal cerebral ischemia. In vivo experiments were conducted using a focal reperfusion model of stroke in conscious spontaneously hypertensive rats (SHR) as previously reported (McCarthy et al., Neuropharmacology 99, 650-657, 2015). Two 23-gauge stainless steel guide cannulae were stereotaxically implanted into anaesthetised animals (ketamine 75 mg/kg; xylazine 10 mg/kg; intraperitoneal) 5 days prior to stroke induction. The first cannula was implanted 3 mm dorsal to the right middle cerebral artery for stroke induction. The second cannula was implanted into the left lateral ventricle for drug administration. […]
Compared to models of middle cerebral artery occlusion (MCAO) achieved by surgical exposure of the artery, this model has the advantage of minimal surgical intervention in the brain, and the stroke is induced in the absence of anaesthetics, which can confound the results of drug studies (Callaway et al., 1999; Sharkey et al., 1993). Stroke-induced motor deficit was assessed by counting the number of foot faults made while rats traversed a gradually narrowing ledged beam (McCarthy et al., Stroke 40, 1482-1489, 2009). […] For the neurological score, postural abnormalities were assessed by elevating the rat by the tail above a flat surface and grading the severity of thorax twisting and the angle of forelimb extension. […]

ASIC1a = conditions: McCarthy et al., 2015; cited from earlier work

Compound | Extent of inhibition of ASIC1a currents (full or incomplete) (rASIC1a) | Reversibility of inhibition (in words) (rASIC1a) | Rapidly reversible inhibition (rASIC1a) | IC50 (rASIC1a) [nM] | % Residual Current (rASIC1a) [%] | also measured
CC[C@H](C)[C@@H]1NC(=O)[C@@H](NC(=O)[C@H](CCC(=O)O)NC(=O)[C@H](CC(N)=O)NC(=O)[C@@H](N)CO)CSSC[C@@H]2NC(=O)[C@@H]3CSSC[C@@H](C(=O)N[C@H](C(=O)N4CCC[C@H]4C(=O)N[C@H](C(=O)N4CCC[C@H]4C(=O)O)[C@@H](C)CC)C(C)C)NC(=O)[C@H](C(C)C)NC(=O)[C@H](CCC(=O)O)NC(=O)[C@H](Cc4ccccc4)NC(=O)[C@H](CO)NC(=O)[C@H](Cc4c[nH]cn4)NC(=O)[C@H](CCCNC(=N)N)NC(=O)[C@H](CCCNC(=N)N)NC(=O)[C@H](CCCCN)NC(=O)[C@H](Cc4ccc(O)cc4)NC(=O)[C@H](CSSC[C@H](NC(=O)[C@H](CO)NC(=O)[C@H](CC(C)C)NC(=O)[C@H](Cc4c[nH]c5ccccc45)NC(=O)[C@H](CCCCN)NC(=O)[C@H](CCCNC(=N)N)NC1=O)C(=O)N[C@@H](C(C)C)C(=O)N[C@@H](CC(=O)O)C(=O)N[C@@H](CCCNC(=N)N)C(=O)N[C@@H](CCCCN)C(=O)N[C@@H](CC(N)=O)C(=O)N[C@@H](CC(=O)O)C(=O)N3)NC(=O)[C@H](CCC(=O)O)NC(=O)[C@H](CC(C)C)NC(=O)CNC(=O)[C@H](CCC(=O)O)NC2=O [Hi1a_N] (H-SNECIRKWLSCVDRKNDCCEGLECYKRRHSFEVCVPIP-OH; disulfide 4-19, 11-24, 18-34) | fully inhibit | fully reversible |  |  |  | Fold lower potency than PcTx1 or full-length Hi1a (rASIC1a): ~1000 fold
Hi1a_C: C-terminal ICK domain of Hi1a expressed separately in E. coli, SEQ ID NO:21 (IPGFCLVKWKQCDGRERDCCAGLECWKRSGNKSSVCAPIT; listed as Hadronyche infensa) |  |  |  |  |  | Effect on current (rASIC1a; at 1 μM): minor potentiation; Inhibition (rASIC1a; at 10 μM): negligible inhibition; Inhibitory effect (rASIC1a; up to 30 μM): no observed inhibitory effect
PcTx1 mutant iso 2: Double-mutant PcTx1 analogue (R27A/V32A) that is inactive against ASIC1a (EDCIPKWKGCVNRHGDCCEGLECWKRARSFEACVPKTPKT; ends and bridges not checked; cysteine pairing not given here; UniProt P60514 1-40, looked up, variant R27A V32A) |  |  |  |  |  | Infarct size in cortical (penumbral) and striatal (core) regions [1]: completely ineffective; also recorded: no effect; Activity against ASIC1a (ASIC1a): inactive
QECIAKWKSCAGRKLDCCEGLECWKRRWGHEVCVPITQKIFCLEKWKSCFERKYDCCEELECWERRGNKHPVCAPKQ (disulfide 3-18, 10-23, 17-33, 42-57, 49-62, 56-73) [Hi1d] | complete |  | Yes |  |  | 
SEDCIPKWKGCVNRHGDCCEGLECWKRRRSFEVCVPKTEDCIPKWKGCVNRHGDCCEGLECWKRRRSFEVCVPKTPKT (disulfide 4-19, 11-24, 18-34, 41-56, 48-61, 55-71) [EP 1] | full inhibition | slowly reversible | No | 64 | 0 | Fold increase in IC50 (decrease in potency) relative to wild-type Hi1a (rASIC1a): ~200 fold
SEDCIPKWKGCVNRHGDCCEGLECWKRRRSFEVCVPKTGDCIPKWKGCVNRHGDCCEGLECWKRRRSFEVCVPKTPKT (disulfide 4-19, 11-24, 18-34, 41-56, 48-61, 55-71) [EP 2] | full inhibition | slowly reversible | No | 215 | 0 | Fold increase in IC50 (decrease in potency) relative to wild-type Hi1a (rASIC1a): ~500 fold
SEDCIPKWKGCVNRHGDCCEGLECWKRRRSFEVCVPKTPKTIPGFCLVKWKQCDGRERDCCAGLECWKRSGNKSSVCAPIT (disulfide 4-19, 11-24, 18-34, 46-61, 53-66, 60-77) [PcTx1/Hi1a_C] | incomplete inhibition | slowly reversible | No | 1.3 | ~35 | Fold increase in IC50 (decrease in potency) relative to wild-type Hi1a (rASIC1a): 3 fold
SNECIRKWKSCVDRKNDCCEGLECYKRRHSFEVCVPIPGFCLVKWKQCDGRERDCCAGLECWKRSGNKSSVCAPIT (disulfide 4-19, 11-24, 18-34, 41-56, 48-61, 55-72) [Hi1a L8K] |  |  | No | 0.976 | 30 | Potency compared to wild-type Hi1a (in words) (rASIC1a): little effect
SNECIRKWLSCVDRKNDCCEGLECWKRRHSFEVCVPIPGFCLVKWKQCDGRERDCCAGLECWKRSGNKSSVCAPIT (disulfide 4-19, 11-24, 18-34, 41-56, 48-61, 55-72) [Hi1a Y24W] | full inhibition |  | No | 0.537 | 0 | 
SNECIRKWLSCVDRKNDCCEGLECYKRRHSFEVCVPGGGGGGFCLVKWKQCDGRERDCCAGLECWKRSGNKSSVCAPIT (disulfide 4-19, 11-24, 18-34, 44-59, 51-64, 58-75) [EP 3] |  |  |  | > 4 | 80 | Inhibition of rASIC1a currents (rASIC1a; applied at up to 1 μM): ≤ 20%
SNECIRKWLSCVDRKNDCCEGLECYKRRRSFEVCVPIPGFCLVKWKQCDGRERDCCAGLECWKRSGNKSSVCAPIT (disulfide 4-19, 11-24, 18-34, 41-56, 48-61, 55-72) [Hi1a H28R] |  |  | No | 0.115 | 20 | Potency compared to wild-type Hi1a (in words) (rASIC1a): slightly increased potency
